These results are taken from patent US20080262064A1, “Novel Compounds For The Treatment Of GI Disorders 682” (ASTRAZENECA AB, priority 2007, published 2008).

Molecules are shown by their SMILES.

T1 sequence (Q9UBS5 15-961 limits assumed): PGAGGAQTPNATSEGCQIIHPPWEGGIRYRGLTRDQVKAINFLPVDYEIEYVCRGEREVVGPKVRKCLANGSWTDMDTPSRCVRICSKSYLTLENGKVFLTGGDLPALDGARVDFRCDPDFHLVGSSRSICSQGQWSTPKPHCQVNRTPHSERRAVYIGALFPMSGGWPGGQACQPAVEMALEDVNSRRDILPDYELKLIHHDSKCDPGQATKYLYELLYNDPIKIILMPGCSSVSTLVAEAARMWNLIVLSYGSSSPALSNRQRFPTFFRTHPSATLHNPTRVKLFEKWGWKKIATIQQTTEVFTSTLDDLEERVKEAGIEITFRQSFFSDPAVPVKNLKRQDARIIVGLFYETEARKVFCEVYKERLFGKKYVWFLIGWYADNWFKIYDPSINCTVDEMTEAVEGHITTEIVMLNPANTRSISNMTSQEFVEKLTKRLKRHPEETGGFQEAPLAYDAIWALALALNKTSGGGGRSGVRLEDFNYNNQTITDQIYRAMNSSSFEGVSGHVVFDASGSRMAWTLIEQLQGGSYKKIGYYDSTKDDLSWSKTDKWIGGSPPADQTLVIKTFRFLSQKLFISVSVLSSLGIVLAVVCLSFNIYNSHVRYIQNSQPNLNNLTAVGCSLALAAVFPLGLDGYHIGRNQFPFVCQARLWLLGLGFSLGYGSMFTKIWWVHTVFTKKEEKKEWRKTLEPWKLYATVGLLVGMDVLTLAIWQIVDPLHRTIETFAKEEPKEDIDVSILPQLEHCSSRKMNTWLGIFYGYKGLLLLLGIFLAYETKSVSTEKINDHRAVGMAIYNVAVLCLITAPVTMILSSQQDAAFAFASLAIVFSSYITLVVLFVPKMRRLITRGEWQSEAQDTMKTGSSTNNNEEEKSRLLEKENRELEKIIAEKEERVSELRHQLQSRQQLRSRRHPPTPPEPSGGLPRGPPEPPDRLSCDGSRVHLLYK
T1 sequence (O75899 42-941): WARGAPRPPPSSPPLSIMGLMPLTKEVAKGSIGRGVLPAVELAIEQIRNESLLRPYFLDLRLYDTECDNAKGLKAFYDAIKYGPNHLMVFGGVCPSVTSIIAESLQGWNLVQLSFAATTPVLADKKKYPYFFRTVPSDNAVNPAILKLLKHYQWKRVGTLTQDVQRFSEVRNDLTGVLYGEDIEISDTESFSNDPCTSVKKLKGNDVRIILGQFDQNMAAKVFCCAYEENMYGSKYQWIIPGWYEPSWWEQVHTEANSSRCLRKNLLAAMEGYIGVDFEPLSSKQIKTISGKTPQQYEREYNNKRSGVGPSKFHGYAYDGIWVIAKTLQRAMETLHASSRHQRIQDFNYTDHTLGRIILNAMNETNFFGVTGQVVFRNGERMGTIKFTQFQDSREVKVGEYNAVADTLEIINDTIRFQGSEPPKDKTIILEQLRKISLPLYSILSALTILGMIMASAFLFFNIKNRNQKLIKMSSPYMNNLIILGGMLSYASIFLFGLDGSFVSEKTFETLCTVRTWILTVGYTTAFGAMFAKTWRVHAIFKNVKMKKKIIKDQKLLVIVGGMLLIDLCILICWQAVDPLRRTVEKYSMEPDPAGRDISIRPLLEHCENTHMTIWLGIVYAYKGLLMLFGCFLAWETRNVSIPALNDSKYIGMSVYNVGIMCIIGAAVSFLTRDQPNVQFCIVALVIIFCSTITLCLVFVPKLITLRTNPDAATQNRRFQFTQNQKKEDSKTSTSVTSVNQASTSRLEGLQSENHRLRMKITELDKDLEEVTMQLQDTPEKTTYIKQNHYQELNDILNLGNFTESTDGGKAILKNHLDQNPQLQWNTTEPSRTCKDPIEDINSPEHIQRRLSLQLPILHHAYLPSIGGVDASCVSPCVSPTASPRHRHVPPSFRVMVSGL

One assay concerns the target T1, GABAB receptor (Homo sapiens, UniProt O75899+Q9UBS5).
T1 construct: expressed in transfected cells
Briefly: [35S]-GTPγS binding assay, potency of PAM on the GABA dose-response. The note with it: membranes from CHO cell lines expressing GABAB receptor; GABA in presence or absence of PAM. Type of assay: biochemical. The source says:
GABABR1a and GABABR2 were cloned from human brain cDNA and subcloned into pCI-Neo (Promega) and pALTER-1(Promega), respectively. A GABABR1a-Gαqi5 fusion protein expression vector was constructed using the pCI-Neo-GABABR1a cDNA plasmid and pLEC1-Gαqi5 (Molecular Devices, Calif.). In order to make the Gαqi5 pertussis toxin insensitive, Cys356 was mutated to Gly using standard PCR methodology with the primers 5′-[…]-3′ (forward) and 5′-GCGGCCG […]-3′ (reverse). The Gαqi5mut cDNA was ligated into the BamHI and NotI sites of pcDNA3.0 (Invitrogen). The GABAB R1a coding sequence was amplified by PCR from pCI-Neo-GABABR1a using the primers, 5′-[…]-3′ (forward) and 5′-[…]-3′ (reverse) and subcloned into the BamHI site of pcDNA3.0-Gαqis5mut.
For generation of a cell line expressing the GABABR1a/GABABR2 heterodimer, GABABR1a plasmid DNA (4 μg) GABABR2 plasmid DNA (4 μg) and lipofectamine (24 μl) were mixed in 5 ml OptiMEM and incubated for 45 minutes at room temperature. The cells were exposed to the transfection medium for 5 hours, which then was replaced with culture medium. The cells were cultured for an additional 10 days before selection agents (300 μg/ml hygromycin and 400 μg/ml geneticin) were added. Twenty-four days after transfection, single cell sorting into 96-well plates by flow cytometry was performed using a FACS Vantage SE (Becton Dickinson, Palo Alto, Calif.), After expansion, the GABAB receptor functional response was tested using the FLIPR assay described below. The clone with the highest functional response was collected, expanded and then subcloned by single cell sorting. The clonal cell line with the highest peak response in the FLIPR was used in the present study.
For generation of a stable cell line expressing GABABR1a-Gαqi5 fusion protein and GABABR2, GABABR1a-Gαqi5mut plasmid DNA (8 μg) GABABR2 plasmid DNA (8 μg) and lipofectamine (24 μl) were mixed in 5 ml OptiMEM and incubated for 45 minutes at room temperature. The cells were exposed to the transfection medium for 5 hours, which then was replaced with culture medium. After forty-eight hours, the cells were detached and seeded in 6 well plates (2000 cells well) and grown in culture medium supplemented with geneticin (400 μg/ml) and zeocin (250 μg/ml). After 4 days, cells from single colonies were collected and transferred to a 24-well plate. After 10 days, the cell clones were seeded in T-25 flasks and grown for another 16 days before they were tested for GABAB receptor mediated functional response. […] The clonal cell line that gave the highest peak response in the FLIPR was used in the present study.
[^35S]-GTPγS binding assays were performed at 30° C. for 45 min in membrane buffer (100 mM NaCl, […], 1 mM EDTA, 50 mM HEPES, pH 7.4) containing 0.025 μg/μl of membrane protein (prepared from the cell lines described above) with 0.01% bovine serum albumin (fatty acid free): 10 μM GDP, 100 μM DTT and 0.53 nM [^35S]-GTPγS (Amersham-Pharmacia Biotech) in a final volume of 200 μl. Non-specific binding was determined in the presence of 20 μM GTPγS. The reaction was started by the addition of GABA at concentration between 1 mM and 0.1 nM in the presence or absence of the required concentration of PAM. The reaction was terminated by addition of ice-cold wash buffer (50 mM Tris-HCl, 5 mM MgCl2, 50 mM NaCl, pH 7.4) followed by rapid filtration under vacuum through Printed Filtermat A glass fiber filters (Wallac) (0.05% PEI treated) using a Micro 96 Harvester (Skatron Instruments). The filters were dried for 30 min at 50° C., then a paraffin scintillant pad was melted onto the filters and the bound radioactivity was determined using a 1450 Microbeta Trilux (Wallac) scintillation counter.
GABA dose-response curves in the presence and absence of test compounds were constructed using the 4-parameter logistic equation, y=ymax+((ymin−ymax)/1+(x/C)^D), where C=EC50 and D=slope factor.
On the technique in general: Binding of GTPγS marks nucleotide exchange on a G protein.
As usually defined, the IC50 is the concentration that inhibits the measured activity by half. `CCC1(C)CCC(C(C)(C)OC(=O)c2c(NC(=O)c3ccc(Cl)cc3Cl)nc(OC)n2-c2ccc(F)cc2)O1` (stereo not shown) [Example 14, 1-(5-ethyl-5-methyltetrahydrofuran-2-yl)-1-methylethyl 4-[(2,4-dichlorobenzoyl)amino]-1-(4-fluorophenyl)-2-methoxy-1H-imidazole-5-carboxylate] registered a 50% inhibitory concentration (IC50) of 2100 nM.

With `COc1nc(NC(=O)c2ccc(Cl)cc2Cl)c(C(=O)OC(C)(C)COc2ccccc2)n1-c1ccc(F)cc1` [Example 12, 1,1-dimethyl-2-phenoxyethyl 4-[(2,4-dichlorobenzoyl)amino]-1-(4-fluorophenyl)-2-methoxy-1H-imidazole-5-carboxylate], the 50% inhibitory concentration (IC50) amounted to 960 nM.

The compound `CCOC(=O)C1(OC(=O)c2c(NC(=O)c3ccc(Cl)cc3Cl)nc(OC)n2-c2ccc(F)cc2)CC1` [Example 13, 1-(ethoxycarbonyl)cyclopropyl 4-[(2,4-dichlorobenzoyl)amino]-1-(4-fluorophenyl)-2-methoxy-1H-imidazole-5-carboxylate] yielded a concentration for half-maximal inhibition (IC50) of 2000 nM.

`COCC(C)(C)OC(=O)c1c(NC(=O)COCc2ccccc2)nc(OC)n1-c1ccc2c(c1)OCO2` [Example 17, 2-methoxy-1,1-dimethylethyl 1-(1,3-benzodioxol-5-yl)-4-{[(benzyloxy)acetyl]amino}-2-methoxy-1H-imidazole-5-carboxylate] displayed a half-maximal inhibitory concentration (IC50) of 3400 nM.

On to `COc1nc(NC(=O)c2cnn(-c3ccc(Cl)cc3)c2C(F)(F)F)c(C(=O)OC(C)(C)C)n1-c1ccc(F)cc1` [Example 6, Tert-butyl 4-({[1-(4-chlorophenyl)-5-(trifluoromethyl)-1H-pyrazol-4-yl]carbonyl}amino)-1-(4-fluorophenyl)-2-methoxy-1H-imidazole-5-carboxylate], for which the IC50 was 1600 nM.

As for `COCC(C)(C)OC(=O)c1c(NC(=O)C2COc3ccccc3O2)nc(OC)n1-c1ccc2c(c1)OCO2` (stereo not shown) [Example 15, 2-methoxy-1,1-dimethylethyl 1-(1,3-benzodioxol-5-yl)-4-[(2,3-dihydro-1,4-benzodioxin-2-ylcarbonyl)amino]-2-methoxy-1H-imidazole-5-carboxylate], the 50% inhibitory concentration (IC50) was 1400 nM.

Take `COc1nc(NC(=O)c2c(F)cc(F)cc2F)c(C(=O)OC(C)(C)C)n1-c1ccc(F)cc1` [Example 8, Tert-butyl 1-(4-fluorophenyl)-2-methoxy-4-[(2,4,6-trifluorobenzoyl)amino]-1H-imidazole-5-carboxylate]: the IC50 is 810 nM.

As to `COCCOCC(C)(C)OC(=O)c1c(NC(=O)c2ccc(Cl)cc2Cl)nc(OC)n1-c1ccc(F)cc1` [Example 10, 2-(2-methoxyethoxy)-1,1-dimethylethyl 4-[(2,4-dichlorobenzoyl)amino]-1-(4-fluorophenyl)-2-methoxy-1H-imidazole-5-carboxylate], the IC50 worked out at 1500 nM.

As for `CCc1nc(NC(=O)c2ccc(N=[N+]=[N-])cc2)c(C(=O)OC(C)(C)C)n1-c1ccc(F)cc1` [Example 19, Tert-butyl 4-[(4-azidobenzoyl)amino]-2-ethyl-1-(4-fluorophenyl)-1H-imidazole-5-carboxylate], the IC50 came to 1100 nM.

`COCC(C)(C)OC(=O)c1c(NC(=O)c2ccc(Cl)cc2Cl)nc(OC)n1-c1cccc(OC)c1` [Example 18, 2-methoxy-1,1-dimethylethyl 4-[(2,4-dichlorobenzoyl)amino]-2-methoxy-1-(3-methoxyphenyl)-1H-imidazole-5-carboxylate] returned an IC50 of 1300 nM. The IC50 values of the last two compounds are within 1.5-fold of each other.

With `COc1nc(NC(=O)C(OC)(c2ccccc2)C(F)(F)F)c(C(=O)OC(C)(C)C)n1-c1ccc(F)cc1` (stereo not shown) [Example 5, Tert-butyl 1-(4-fluorophenyl)-2-methoxy4-[(3,3,3-trifluoro-2-methoxy-2-phenylpropanoyl)amino]-1H-imidazole-5-carboxylate], the half-maximal inhibitory concentration (IC50) amounted to 6200 nM.

`COc1nc(NC(=O)C2(c3ccc(Cl)cc3)CCCC2)c(C(=O)OC(C)(C)C)n1-c1ccc(F)cc1` [Example 4, Tert-butyl 4-({[1-(4-chlorophenyl)cyclopentyl]carbonyl}amino)-1-(4-fluorophenyl)-2-methoxy-1H-imidazole-5-carboxylate] showed an IC50 of 1400 nM.

The compound `COCC(C)(C)OC(=O)c1c(NC(=O)c2ccc(Cl)cc2)nc(OC)n1-c1ccc2c(c1)OCO2` [Example 16, 2-methoxy-1,1-dimethylethyl 1-(1,3-benzodioxol-5-yl)-4-[(4-chlorobenzoyl)amino]-2-methoxy-1H-imidazole-5-carboxylate] registered an IC50 of 1200 nM.

With `COc1nc(NC(=O)c2ccc(Cl)cc2Cl)c(C(=O)OC(C)(C)COCC(F)(F)F)n1-c1ccc(F)cc1` [Example 11, 1,1-dimethyl-2-(2,2,2-trifluoroethoxy)ethyl 4-[(2,4-dichlorobenzoyl)amino]-1-(4-fluorophenyl)-2-methoxy-1H-imidazole-5-carboxylate], the IC50 was found to be 1100 nM. The IC50 values of the last two compounds are within 1.5-fold of each other.

Compound `COc1nc(NC(=O)c2ccc(Cl)cc2)c(C(=O)OC(C)(C)C)n1-c1ccc(F)cc1` [Example 2, Tert-butyl 4-[(4-chlorobenzoyl)amino]-1-(4-fluorophenyl)-2-methoxy-1H-imidazole-5-carboxylate] came in with an IC50 of 3100 nM.

Regarding `CCc1nc(NC(=O)c2ccc(Cl)cc2Cl)c(C(=O)OC(C)(C)C)n1-c1ccc(F)cc1` [Example 20, Tert-butyl 4-[(2,4-dichlorobenzoyl)amino]-2-ethyl-1-(4-fluorophenyl)-1H-imidazole-5-carboxylate], the 50% inhibitory concentration (IC50) worked out at 3700 nM.

`COc1nc(NC(=O)c2ccc(Oc3ccccc3)nc2)c(C(=O)OC(C)(C)C)n1-c1ccc(F)cc1` [Example 7, Tert-butyl 1-(4-fluorophenyl)-2-methoxy-4-{[(6-phenoxypyridin-3-yl)carbonyl]amino}-1H-imidazole-5-carboxylate] displayed an IC50 of 1600 nM.

In turn, `COc1nc(NC(=O)c2ccc(Cl)cc2Cl)c(C(=O)OC(C)(C)C)n1-c1ccc(F)cc1` [Example 9, Tert-butyl 4-[(2,4-dichlorobenzoyl)amino]-1-(4-fluorophenyl)-2-methoxy-1H-imidazole-5-carboxylate] displayed an IC50 of 2160 nM.

In turn, `COc1nc(NC(=O)c2scc(S(=O)(=O)C(C)C)c2Cl)c(C(=O)OC(C)(C)C)n1-c1ccc(F)cc1` [Example 1, Tert-butyl 4-({[3-chloro-4-(isopropylsulfonyl)-2-thienyl]carbonyl}amino)-1-(4-fluorophenyl)-2-methoxy-1H-imidazole-5-carboxylate] returned a half-inhibitory concentration (IC50) of 4000 nM. This IC50 is about 1.9-fold higher than that of the compound before.

With `COc1nc(NC(=O)C2COc3ccccc3O2)c(C(=O)OC(C)(C)C)n1-c1ccc(F)cc1` (stereo not shown) [Example 3, Tert-butyl 4-[(2,3-dihydro-1,4-benzodioxin-2-ylcarbonyl)amino]-1-(4-fluorophenyl)-2-methoxy-1H-imidazole-5-carboxylate], the IC50 is 1500 nM.

Staying with this assay, now noted: potency of PAM in GTPγS assays.
The EC50 is the midpoint of the concentration-response curve. A higher EC50 goes with weaker potency. On to `COc1nc(NC(=O)c2ccc(Cl)cc2Cl)c(C(=O)OC(C)(C)COc2ccccc2)n1-c1ccc(F)cc1` [Example 12, 1,1-dimethyl-2-phenoxyethyl 4-[(2,4-dichlorobenzoyl)amino]-1-(4-fluorophenyl)-2-methoxy-1H-imidazole-5-carboxylate], for which it took 960 nM to reach a half-maximal effect (EC50).

Compound `COc1nc(NC(=O)c2ccc(Cl)cc2Cl)c(C(=O)OC(C)(C)C)n1-c1ccc(F)cc1` [Example 9, Tert-butyl 4-[(2,4-dichlorobenzoyl)amino]-1-(4-fluorophenyl)-2-methoxy-1H-imidazole-5-carboxylate] yielded an EC50 of 2160 nM.
